Data as given in ChEMBL document CHEMBL1124029, “Novel DNA groove binding alkylators: design, synthesis, and biological evaluation” (1988).

tested on: Vaccinia virus; experiment: Minimum inhibitory concentration required to reduce virus induced cytopathogenicity by 50% against vaccinia virus in rabbit primary kidney cell cultures; format: functional; conditions: Orthopoxvirus vaccinia

Row | Structure (SMILES) | MIC [µg/mL]
1 | Cl.Cn1cc(NC(=O)c2cc(NC(=O)C(Cl)(Cl)Cl)cn2C)cc1C(=O)NCCC(=N)N | > 100
2 | Cl.Cn1cc(NC(=O)c2cc(NC(=O)CCCCl)cn2C)cc1C(=O)NCCC(=N)N | 20
3 | Cl.Cl.Cn1cc(NC(=O)c2cc(NC(=O)c3cc(NC=O)cn3C)cn2C)cc1C(=O)NCCC(=N)N | 0.2
4 | CC[N+](CC)(CC)CC.Cn1cc(NC(=O)c2cc(NC(=O)C(Cl)Cl)cn2C)cc1C(=O)NCCC(=N)N.O=S(=O)([O-])O | 20
5 | Cl.Cn1cc(NC(=O)c2cc(NC(=O)CCl)cn2C)cc1C(=O)NCCC(=N)N | 10
6 | Cl.Cl.Cn1cc(NC(=O)c2cc(NC(=O)CNC(=N)N)cn2C)cc1C(=O)NCCC(=N)N [CONGOCIDINE] | 2
7 | Cl.Cn1cc(NC(=O)c2cc(NC(=O)CF)cn2C)cc1C(=O)NCCC(=N)N | 7
8 | Cl.Cn1cc(NC(=O)c2cc(NC(=O)C3CC3)cn2C)cc1C(=O)NCCC(=N)N | > 100
